Patent publication US8642801B2 (BHI Limited Partnership, priority 2003, dated 2014)

Biological target: T1, Aβ40 and Aβ42 peptides in plasma and brain of TgCRND8 mice (Homo sapiens, UniProt P05067)
T1 construct: ELISA using Human Aβ40 and Aβ42 Fluorometric ELISA kits from Biosource; from tissue; host or cells: plasma and brain homogenate of TgCRND8 transgenic mice (hAPP transgene)
Assay: Short term treatment in adult transgenic CRND8 mice overexpressing βAPP: Aβ levels in plasma and brain by ELISA
Type: in vivo, Mouse
Conditions: TgCRND8 mice
Excerpt: Transgenic mice, […]8, expressing the human amyloid precursor protein (hAPP) develop a pathology resembling Alzheimer's disease. In particular, high levels of Aβ40 and Aβ 42 have been documented in the plasma and the brain of these animals at 8-9 weeks of age, followed by early accumulation of amyloid plaques similar to the senile plaques observed in AD patients. These animals also display progressive cognitive deficits that parallel the appearance of degenerative changes. See, […], et al., J. Biol. Chem. 276, 21562-70 (2001). The short term therapeutic effect of 19 compounds of the invention was studied. […] The following abbreviations are used to designate these animals from the 3rd and 4th generation backcross in the present protocol: TgCRND8-2.B6C3F1(N3); TgCRND8-2.B6C3F1(N4). Baseline animals (Group 1) consisted of naive TgCRND8-2. B6C3F1(N3) at 11±1 weeks of age. These mice were used to determine the Aβ levels in the plasma and brain of naive transgenic animals at the initiation of treatment. […] At the end of the treatment periods, plasma and perfused brains were collected for quantification of Aβ levels. […] Plasma samples were immediately frozen and stored at -80° C. pending analysis. The brains were removed, frozen, and stored at -80° C. awaiting analysis. […] Samples were spun at 15000 g for 20 minutes and the supernatants were transferred to fresh tubes. […] The tubes were vortexed for 30 seconds and frozen at -80° C. […] Samples were thawed at room temperature, sonicated at 80° C. for 15 minutes and frozen again. This cycle was repeated 3 times to ensure homogeneity and samples were returned to -80° C. pending analysis. Aβ levels were evaluated in plasma and brain samples by ELISA using Human Aβ40 and Aβ42 Fluorometric ELISA kits from Biosource (Cat. […] In short, samples were thawed at room temperature, sonicated for 5 minutes at 80° C. (sonication for brain homogenates; no sonication for plasma samples) and kept on ice. Aβ peptides were captured using 100 μl of the diluted samples to the plate and incubated without shaking at 4° C. overnight. The samples were aspirated and the wells were rinsed 4 times with wash buffer obtained from the Biosource ELISA kit. The anti-Aβ40 or anti-Aβ42 rabbit polyclonal antiserum (specific for the Aβ40 or Aβ42 peptide) was added (100 μl) and the plate was incubated at room temperature for 2 hours with shaking. The wells were aspirated and washed 4 times before adding 100 μl of the alkaline phosphatase labeled anti-rabbit antibody and incubating at room temperature for 2 hours with shaking. The plates were then rinsed 5 times and the fluorescent substrate (100 μl) was added to the plate. The plate was incubated for 35 minutes at room temperature and the plate was read using a titer plate reader at an excitation wavelength of 460 nm and emission at 560 nm Compounds were scored based on their ability to modulate levels of Aβ peptides in the plasma and the cerebral soluble/insoluble levels in the brain. Levels of Aβ observed in the plasma and brain of treated animals were normalized using values from vehicle-treated (water) or methylcellulose-treated control groups and ranked according to the strength of the pharmacological effect. Increases in the levels of Aβ peptides are indicated using “+” symbols, while decreases in the levels of Aβ peptides are indicated using “-” symbols. The strongest effects are recorded as “+++” or “- - -” while the weakest are shown as “+” or “-”.

[1] = Brain Homogenate Methylcellulose Group, Day 14, 250 mg/kg daily oral
[2] = Brain Homogenate Methylcellulose Group, Day 28, 250 mg/kg daily oral
[3] = Plasma Methylcellulose Group, Day 28, 250 mg/kg daily oral in 1% methylcellulose, normalized to methylcellulose control
[4] = Brain Homogenate Vehicle Group, Day 14, 250 mg/kg daily
[5] = Brain Homogenate Vehicle Group, Day 28, 250 mg/kg daily
[6] = Plasma Vehicle Group, Day 14, 250 mg/kg daily subcutaneous, normalized to water vehicle control

`O=S(=O)(O)CCCNC12CC3CC(CC(C3)C1)C2` [BW, 3-(1-adamantyl)amino-1-propanesulfonic acid] was tested, and the “Brain homogenate Aβ40 Change Insoluble” value [1] was “−−− (decreases of 39% or more are scored as “− − −”)”, the “Brain homogenate Aβ42 Change Insoluble” value [1] was “−−− (decreases of 39% or more are scored as “− − −”)” and the “Brain homogenate Aβ42 Change Soluble” value [1] was “−− (decreases of 20 to 38% are scored as “− −”)”. For the same compound, the “Brain homogenate Aβ40 Change Insoluble” value [2] was “− (Decreases in the levels of Aβ of 5 to 19% are scored as “−”)”, the “Brain homogenate Aβ40 Change Soluble” value [2] was “− (Decreases in the levels of Aβ of 5 to 19% are scored as “−”)” and the “Brain homogenate Aβ42 Change Insoluble” value [2] was “−− (decreases of 20 to 38% are scored as “− −”)”. The “Brain homogenate Aβ42 Change Soluble” value [2] was “− (Decreases in the levels of Aβ of 5 to 19% are scored as “−”)” and the “Plasma Aβ42 Change” value [3] was “+ (increases in the levels of Aβ (relative to untreated control) of 20 to 39% are scored as “+”)”.

With `O=S(=O)(O)CCCNC1C2CC3CC(C2)CC1C3` (stereo not drawn) [BZ, 3-(2-adamantyl)amino-1-propanesulfonic acid] the “Brain homogenate Aβ40 Change Insoluble” value [1] was “−−− (decreases of 39% or more are scored as “− − −”)”, the “Brain homogenate Aβ42 Change Insoluble” value [1] was “−− (decreases of 20 to 38% are scored as “− −”)” and the “Brain homogenate Aβ40 Change Insoluble” value [2] was “−− (decreases of 20 to 38% are scored as “− −”)”. The “Brain homogenate Aβ40 Change Soluble” value [2] was “−− (decreases of 20 to 38% are scored as “− −”)”, the “Brain homogenate Aβ42 Change Insoluble” value [2] was “−− (decreases of 20 to 38% are scored as “− −”)” and the “Plasma Aβ40 Change” value (Plasma Methylcellulose Group, Day 14, 250 mg/kg daily oral in 1% methylcellulose, normalized to methylcellulose control) was “+ (increases in the levels of Aβ (relative to untreated control) of 20 to 39% are scored as “+”)”. The “Plasma Aβ40 Change” value [3] was “++ (increases of 40 to 69% are scored as “++”)” and the “Plasma Aβ42 Change” value [3] was “++ (increases of 40 to 69% are scored as “++”)”.

`CC(C)(C)NCCCS(=O)(=O)O` [BX, 3-(t-butyl)amino-1-propanesulfonic acid] was tested, and the “Brain homogenate Aβ40 Change Insoluble” value [4] was “−−− (decreases of 39% or more are scored as “− − −”)”, the “Brain homogenate Aβ40 Change Soluble” value [4] was “− (Decreases in the levels of Aβ of 5 to 19% are scored as “−”)” and the “Brain homogenate Aβ42 Change Insoluble” value [4] was “−−− (decreases of 39% or more are scored as “− − −”)”. For the same compound, the “Brain homogenate Aβ42 Change Soluble” value [4] was “−− (decreases of 20 to 38% are scored as “− −”)”, the “Brain homogenate Aβ40 Change Insoluble” value [5] was “−−− (decreases of 39% or more are scored as “− − −”)” and the “Brain homogenate Aβ40 Change Soluble” value [5] was “−−− (decreases of 39% or more are scored as “− − −”)”. For the same compound, the “Brain homogenate Aβ42 Change Insoluble” value [5] was “− (Decreases in the levels of Aβ of 5 to 19% are scored as “−”)”, the “Brain homogenate Aβ42 Change Soluble” value [5] was “−− (decreases of 20 to 38% are scored as “− −”)” and the “Plasma Aβ40 Change” value [6] was “+++ (increases of 70% or higher are scored as “+ + +”)”. The “Plasma Aβ42 Change” value [6] was “++ (increases of 40 to 69% are scored as “++”)” and the “Plasma Aβ40 Change” value (Plasma Vehicle Group, Day 28, 250 mg/kg daily subcutaneous, normalized to water vehicle control) was “+++ (increases of 70% or higher are scored as “+ + +”)”.
